# According to patent publication US20070049564A1 (Wyeth, priority 2005, published 2007):
# Like-named read-outs stand apart in the source and are kept apart here.
# Columns and labels:
# [1] = test system: E. coli; test: Range of MIC for E. coli strains; conditions: Escherichia coli
# [2] = test system: Staph.; test: Range of MIC for Staph. strains, including MRSA; conditions: Staphylococcus aureus, MRSA
# [3] = 20 h, read-out: Range of MIC, E. coli (Mouse Serum)
# [4] = read-out: Range of MIC, E. coli (Water)
# [5] = read-out: Range of MIC, Staph (Mouse Serum)
# [6] = read-out: Range of MIC, Staph (Water)
SMILES,"MIC [1, 3] [µg/mL]","MIC [1, 4] [µg/mL]","MIC [2, 5] [µg/mL]","MIC [2, 6] [µg/mL]"
CN(C)c1cc(NC(=O)CN(C(=O)OCOC(=O)COc2ccc(F)cc2)C(C)(C)C)c(O)c2c1C[C@H]1C[C@H]3[C@H](N(C)C)C(O)=C(C(N)=O)C(=O)[C@@]3(O)C(O)=C1C2=O [Example 64],< 0.12,0.12 to 1,0.12 to 0.25,0.12 to 0.5
"CN(C)c1cc(NC(=O)CN(C(=O)OCOC(=O)CC2CCCCC2)C(C)(C)C)c(O)c2c1C[C@H]1C[C@H]3[C@H](N(C)C)C(O)=C(C(N)=O)C(=O)[C@@]3(O)C(O)=C1C2=O [Example 65, ({[(2-{[(5aR,6aS,7S,10aS)-9-(aminocarbonyl)-4,7-bis(dimethylamino)-1,8,10a,11-tetrahydroxy-10,12-dioxo-5,5a,6,6a,7,10,10a,12-octahydrotetracen-2-yl]amino}-2-oxoethyl)(tert-butyl)amino]carbonyl}oxy)methyl cyclohexylacetate]",0.12 to 0.5,16,0.12 to 0.5,0.12 to 1
"Cc1cccc(C)c1C(=O)OCOC(=O)N(CC(=O)Nc1cc(N(C)C)c2c(c1O)C(=O)C1=C(O)[C@]3(O)C(=O)C(C(N)=O)=C(O)[C@@H](N(C)C)[C@@H]3C[C@@H]1C2)C(C)(C)C [Example 66, ({[(2-{[(5aR,6aS,7S,10aS)-9-(aminocarbonyl)-4,7-bis(dimethylamino)-1,8,10a,11-tetrahydroxy-10,12-dioxo-5,5a,6,6a,7,10,10a,12-octahydrotetracen-2-yl]amino}-2-oxoethyl)(tert-butyl)amino]carbonyl}oxy)methyl 2,6-dimethylbenzoate]",> 128,> 128,1 to 16,2 to 16
"CN(C)c1cc(NC(=O)CN(C(=O)OCOC(=O)Cc2ccccc2)C(C)(C)C)c(O)c2c1C[C@H]1C[C@H]3[C@H](N(C)C)C(O)=C(C(N)=O)C(=O)[C@@]3(O)C(O)=C1C2=O [Example 67, ({[(2-{[(5aR,6aS,7S,10aS)-9-(aminocarbonyl)-4,7-bis(dimethylamino)-1,8,10a,11-tetrahydroxy-10,12-dioxo-5,5a,6,6a,7,10,10a,12-octahydrotetracen-2-yl]amino}-2-oxoethyl)(tert-butyl)amino]carbonyl}oxy)methyl phenylacetate]",0.12 to 0.25,8 to 32,0.12 to 0.25,0.12 to 1
"CN(C)c1cc(NC(=O)CN(C(=O)OCOC(=O)C(C)(C)C)C(C)(C)C)c(O)c2c1C[C@H]1C[C@H]3[C@H](N(C)C)C(O)=C(C(N)=O)C(=O)[C@@]3(O)C(O)=C1C2=O [Example 68, ({[(2-{[(5aR,6aS,7S,10aS)-9-(aminocarbonyl)-4,7-bis(dimethylamino)-1,8,10a,11-tetrahydroxy-10,12-dioxo-5,5a,6,6a,7,10,10a,12-octahydrotetracen-2-yl]amino}-2-oxoethyl)(tert-butyl)amino]carbonyl}oxy)methyl pivalate]",0.12 to 1,2 to 8,0.12 to 0.25,0.12 to 1
"CN(C)c1cc(NC(=O)CN(C(=O)OCOC(=O)c2cc3ccccc3o2)C(C)(C)C)c(O)c2c1C[C@H]1C[C@H]3[C@H](N(C)C)C(O)=C(C(N)=O)C(=O)[C@@]3(O)C(O)=C1C2=O [Example 69, ({[(2-{[(5aR,6aS,7S,10aS)-9-(aminocarbonyl)-4,7-bis(dimethylamino)-1,8,10a,11-tetrahydroxy-10,12-dioxo-5,5a,6,6a,7,10,10a,12-octahydrotetracen-2-yl]amino}-2-oxoethyl)(tert-butyl)amino]carbonyl}oxy)methyl 1-benzofuran-2-carboxylate]",0.12 to 0.5,8 to 64,0.12 to 0.25,0.12 to 1
CN(C)c1cc(NC(=O)CN(C(=O)OCOC(=O)c2cccn2C)C(C)(C)C)c(O)c2c1C[C@H]1C[C@H]3[C@H](N(C)C)C(O)=C(C(N)=O)C(=O)[C@@]3(O)C(O)=C1C2=O [Example 70],4 to 8,> 64,1 to 4,2 to 4
"COc1ccc(C(=O)OCOC(=O)N(CC(=O)Nc2cc(N(C)C)c3c(c2O)C(=O)C2=C(O)[C@]4(O)C(=O)C(C(N)=O)=C(O)[C@@H](N(C)C)[C@@H]4C[C@@H]2C3)C(C)(C)C)cc1 [Example 72, ({[(2-{[(5aR,6aS,7S,10aS)-9-(aminocarbonyl)-4,7-bis(dimethylamino)-1,8,10a,11-tetrahydroxy-10,12-dioxo-5,5a,6,6a,7,10,10a,12-octahydrotetracen-2-yl]amino}-2-oxoethyl)(tert-butyl)amino]carbonyl}oxy)methyl 4-methoxybenzoate]",0.5 to 1,> 64,0.5 to 1,4 to 8
"CN(C)c1cc(NC(=O)CN(C(=O)OCOC(=O)c2cc3ccccc3[nH]2)C(C)(C)C)c(O)c2c1C[C@H]1C[C@H]3[C@H](N(C)C)C(O)=C(C(N)=O)C(=O)[C@@]3(O)C(O)=C1C2=O [Example 73, ({[(2-{[(5aR,6aS,7S,10aS)-9-(aminocarbonyl)-4,7-bis(dimethylamino)-1,8,10a,11-tetrahydroxy-10,12-dioxo-5,5a,6,6a,7,10,10a,12-octahydrotetracen-2-yl]amino}-2-oxoethyl)(tert-butyl)amino]carbonyl}oxy)methyl 1H-indole-2-carboxylate]",0.5 to 1,> 64,1 to 4,4 to 8
"CN(C)c1cc(NC(=O)OCOC(=O)c2cccs2)c(O)c2c1C[C@H]1C[C@H]3[C@H](N(C)C)C(O)=C(C(N)=O)C(=O)[C@@]3(O)C(O)=C1C2=O [Example 75, [({[(5aR,6aS,7S,10aS)-9-(aminocarbonyl)-4,7-bis(dimethylamino)-1,8,10a,11-tetrahydroxy-10,12-dioxo-5,5a,6,6a,7,10,10a,12-octahydrotetracen-2-yl]amino}carbonyl)oxy]methyl thiophene-2-carboxylate]",,> 64,8 to 16,16 to 32
"CN(C)c1cc(NC(=O)OCOC(=O)c2ccc(F)cc2)c(O)c2c1C[C@H]1C[C@H]3[C@H](N(C)C)C(O)=C(C(N)=O)C(=O)[C@@]3(O)C(O)=C1C2=O [Example 76, [({[(5aR,6aS,7S,10aS)-9-(aminocarbonyl)-4,7-bis(dimethylamino)-1,8,10a, 1-tetrahydroxy-10,12-dioxo-5,5a,6,6a,7,10,10a,12-octahydrotetracen-2-yl]amino}carbonyl)oxy]methyl 4-fluorobenzoate]",,> 64,8 to 16,8 to 32
"Cc1cc(C)cc(C(=O)OCOC(=O)Nc2cc(N(C)C)c3c(c2O)C(=O)C2=C(O)[C@]4(O)C(=O)C(C(N)=O)=C(O)[C@@H](N(C)C)[C@@H]4C[C@@H]2C3)c1 [Example 77, [({[(5aR,6aS,7S,10aS)-9-(aminocarbonyl)-4,7-bis(dimethylamino)-1,8,10a,11-tetrahydroxy-10,12-dioxo-5,5a,6,6a,7,10,10a,12-octahydrotetracen-2-yl]amino}carbonyl)oxy]methyl 3,5-dimethylbenzoate]",,> 64,2 to 4,4 to 32
"CN(C)c1cc(NC(=O)OCOC(=O)C(C)(C)C)c(O)c2c1C[C@H]1C[C@H]3[C@H](N(C)C)C(O)=C(C(N)=O)C(=O)[C@@]3(O)C(O)=C1C2=O [Example 78, [({[(5aR,6aS,7S,10aS)-9-(aminocarbonyl)-4,7-bis(dimethylamino)-1,8,10a,11-tetrahydroxy-10,12-dioxo-5,5a,6,6a,7,10,10a,12-octahydrotetracen-2-yl]amino}carbonyl)oxy]methyl pivalate]",16 to 64,> 64,8,8 to 32
"CN(C)c1cc(NC(=O)OCOC(=O)CC(C)(C)C)c(O)c2c1C[C@H]1C[C@H]3[C@H](N(C)C)C(O)=C(C(N)=O)C(=O)[C@@]3(O)C(O)=C1C2=O [Example 79, [({[(5aR,6aS,7S,10aS)-9-(aminocarbonyl)-4,7-bis(dimethylamino)-1,8,10a,11-tetrahydroxy-10,12-dioxo-5,5a,6,6a,7,10,10a,12-octahydrotetracen-2-yl]amino}carbonyl)oxy]methyl 3,3-dimethylbutanoate]",,> 64,4,4 to 8
"CCC(C)(C)C(=O)OCOC(=O)Nc1cc(N(C)C)c2c(c1O)C(=O)C1=C(O)[C@]3(O)C(=O)C(C(N)=O)=C(O)[C@@H](N(C)C)[C@@H]3C[C@@H]1C2 [Example 80, [({[(5aR,6aS,7S,10aS)-9-(aminocarbonyl)-4,7-bis(dimethylamino)-1,8,10a,11-tetrahydroxy-10,12-dioxo-5,5a,6,6a,7,10,10a,12-octahydrotetracen-2-yl]amino}carbonyl)oxy]methyl 2,2-dimethylbutanoate]",,,4 to 8,4 to 16
"CN(C)c1cc(NC(=O)CN(C(=O)OCOC(=O)c2cn(C)c3ccccc23)C(C)(C)C)c(O)c2c1C[C@H]1C[C@H]3[C@H](N(C)C)C(O)=C(C(N)=O)C(=O)[C@@]3(O)C(O)=C1C2=O [Example 83, ({[(2-{[(5aR,6aS,7S,10aS)-9-(aminocarbonyl)-4,7-bis(dimethylamino)-1,8,10a,11-tetrahydroxy-10,12-dioxo-5,5a,6,6a,7,10,10a,12-octahydrotetracen-2-yl]amino}-2-oxoethyl)(tert-butyl)amino]carbonyl}oxy)methyl 1-methyl-1H-indole-3-carboxylate]",,> 64,8 to 32,2 to 16
"CN(C)c1cc(NC(=O)CN(C(=O)OCOC(=O)c2ccc3ccccc3n2)C(C)(C)C)c(O)c2c1C[C@H]1C[C@H]3[C@H](N(C)C)C(O)=C(C(N)=O)C(=O)[C@@]3(O)C(O)=C1C2=O [Example 84, ({[(2-{[(5aR,6aS,7S,10aS)-9-(aminocarbonyl)-4,7-bis(dimethylamino)-1,8,10a,11-tetrahydroxy-10,12-dioxo-5,5a,6,6a,7,10,10a,12-octahydrotetracen-2-yl]amino}-2-oxoethyl)(tert-butyl)amino]carbonyl}oxy)methyl quinoline-2-carboxylate]",2 to 4,> 64,0.5 to 2,0.5 to 4
